Experimental data: patent publication US20140256663A1, “Amphotericin Analogous Compounds and Pharmaceutical Compositions Containing Them” (CENTRO DE INVESTIGACION Y DE ESTUDIOS AVANZADOS DEL …, priority 2010, published 2014)
“Also recorded” adds a separate entry of the source.

Key:
[1] = system: Candida albicans ATCC 10231; test: Antifungal activity in vitro by flow cytometry, Candida albicans ATCC 10231; type: cell-based; settings: ATCC10231, 24 h at 37° C., read-out: CF50 Candida albicans ATCC 10231
Method: (§1) The antifungal activity of the polyene macrolide derivate of the present invention was determined by flow cytometry method earlier described (Pinto et al., J. Medical Microbiology, 2009; 58, 1454-1462; Pina-Vaz and Rodriguez, Methods Mol. Biol. 2010; 638:281-289). For the test two strains of Candida albicans (ATCC 10231 and 752) and Candida kruzei were used. A cellular suspension of 1×10^6 UFC/mL was used, which has sown in 96-well plates. […] As controls were used: untreated yeasts (control of living cells), yeasts exposed to UV radiation (arrest, inhibition of proliferation), and yeasts exposed at temperature of 100° C. (dead yeasts). Cells were collected by centrifugation at 10,000×g for 10 min, they were washed once in phosphate buffer. […] of propidium iodide 0.1 mg/mL were added to the cell suspension. It was incubated during 30 minutes at room temperature and protected from light. Finally, the samples were analyzed by flow cytometry (Becton-Dickinson Facsc Calibur, laser argon 480 nm). The intrinsic parameters and fluorescence in the FL2 channel (yellow/orange fluorescence) for FUN and channel FL3 (red fluorescence, filter 630 nm) for propidium iodide were acquired and registered on a logarithmic scale for a minimum of 7500 events per sample. For data analysis, the quadrants were adjusted in a plot of data lines of fluorescence intensity of samples. […] These quadrants were used to quantify the percentile of cells showing altered fluorescence compared to drug-free controls.

[2] = system: Candida albicans ATCC 752; test: Antifungal activity in vitro by flow cytometry, Candida albicans ATCC 752; type: cell-based; settings: ATCC752, 24 h at 37° C., read-out: CF50 Candida albicans ATCC 752
Method: as §1

[3] = system: human erythrocytes; test: Hemolytic assay on human erythrocytes; type: cell-based; settings: 1 hour
Method: The hemotoxicity of the polyene macrolide derivative of the present invention was determined by measuring the toxicity to human erythrocytes (values HE50) using a method established by Cybulska, et al. (Cybulska, B., Borowski, E. and Gary-Bobo, M. Relationship between ionophoric and hemolytic activities of perimycin A and vacidin A, two polyene macrolide antifungal antibiotics. Biochem Pharmacol. 1989; 38(11): 1755-1762). For determining the haematoxicity 2 mL blood were obtained and placed in a tube with EDTA. The number of erythrocytes was counted in a Neubauer chamber, and 1×10^7 cells/mL were placed in test tubes. The erythrocytes were resuspended in 450 μL of KCl 150 mM+Tris 3 mM buffer. The erythrocytes were treated with concentrations of 0.01, 0.1, 1, 10 y 100 μM and incubated in a water bath for 1 hour. They were then centrifuged at 1500 rpm for 15 seconds; 150 μL were taken from the supernatant and placed in 96-well plates; the optical density of each group was measured using a plate reader at a wavelength of 550 nm. We included one tube with the drug solvent (DMSO 1%) as internal control. We also included one tube only with erythrocytes and 500 μl of buffer KCl 150 mM+Tris 3 mM, which we consider as a negative control group and a tube with 500 μl of red cells and 35 mM NaCl (positive control).

[4] = Unit channel studies in chicken egg lecithin bilayers with cholesterol; settings: for Opening probability, channel type I / Opening probability, channel type II / Opening probability, channel type III / Opening probability, channel type IV / Opening probability, channel type V / Opening probability, channel type VI: 200 μM compound, 30 mol % cholesterol, 27° C.; for activity of transmembranal channels in the cholesterol membrane: in words, compared to AmB
Method: The activity is determined by the presence of the different channels formed by polyenes in the lipid bilayer (Cotero, et al., supra; Venegas, et al., supra). […] These values were determined by the technique of unit channel delineated above.
Unit channel studies were performed according to procedures described earlier (Cotero, et al., supra, Venegas, et al., supra). Required liposomal suspensions were prepared using lecithin with cholesterol or ergosterol. These suspensions were placed in an ultrasonic bath for 15 minutes to produce unilamellar vesicles. Subsequently, the suspension was placed in a 100 μl eppendorf and a lipid bilayer was formed on the tip of a micro-electrode. The unit channels of amphotericin and of the invented compounds were incorporated to this bilayer. The unit channel current of the various compounds was recorded with an electrometer, and then these records were analyzed by determining the activity of the compounds and the characteristics of the channels formed.
The activity is determined by the presence of the various channels formed by polyenes in the lipid bilayer (Cotero, et al., supra, Venegas, et al., supra). […] This conductance is the effect of all the channels present and was determined by the unit channel technique earlier described.

[5] = system: Saccharomyces cerevisae FY833(SC) cells; test: Viability of Saccharomyces cerevisae FY833 (SC) cells at various concentrations; type: cell-based; settings: FIG. 1, various concentrations
Method: All derivatives were tested for antibiotic activity in yeast cultures of S. cerevisiae.

[6] = system: human renal cells 293Q (ATCC CLR-1573); test: MTT cytotoxicity on human renal cells 293Q; settings: for DT50 CitE50: human renal cells 293Q, 24 h
Method: For cytotoxicity studies human kidney cells (ATCC No. CRL-1573) were used. The cells were cultured with Minimum Essential Medium (MEM) (GIBCO BRL), supplemented with 10% fetal bovine serum (FBS) (GIBCO BRL), 2 mM 1-glutamine (GIBCO BRL), 1.5 gL Na2HCO3 (Sigma Chemical Co), 0.1 mM nonessential amino acids (Sigma Chemical Co), and 1 mM sodium pyruvate (In vitro, S.A.). The technique of bromide of 3(4,5-dimethylthiazol-2-yl)-2,5-diphenyl tetrazolium (MTT) (Sigma Chemical Co) was applied; a technique which is based on the conversion of dye to an insoluble precipitate called formazan. This test is used as an indicator of mitochondrial function in living cells that measures the metabolic capacity in cells and serves as an indicator of cytotoxicity. […] (Mosman […], Immunol Methods, 65: 55-63). The cytoxicity test consisted of planting 10,000 cells per well in 96-well plates (Corning Incorporated Costar) in MEM and incubate them (Nuaire us autoflow CO2 water-jacketed incubator) during 24 h at 37° C. and 5% CO2. […] After incubation, cells were treated and incubated anew for 24 h. After this time the medium was aspirated carefully and replaced with 200 μL of fresh medium, and 50 μL of MTT was added for a total volume of 250 μl. They were then incubated for 4 hours in the above conditions. After that time the medium with MTT was carefully removed and 200 μL of DMSO and 25 μL of Sorensen buffer (0.1 M glycine+0.1 M NaCl at pH 10.5) were added to each well. The plate was then mixed until the formazan crystals dissolved, and it was finally read in a plate reader (Microplate Limaning System Ultramark, Biorad) at a wavelength of 550 nm.
For the tests, we used human renal ephythelial cells (293Q) (ATCC Catalog No. CRL-1573). The cells were cultured with Minimum Essential Medium (MEM) (GIBCO BRL) supplemented with 10% fetal bovine serum (FBS) (GIBCO BRL), 2 mM L-glutamine (GIBCO BRL), 1.5 g/L Na2HCO3 (Sigma Chemical Co), 0.1 mM nonessential amino acids (Sigma Chemical Co), and 1 mM sodium pyruvate (In vitro, S.A.). For cytoxicity tests, we applied the technique of bromide 3(4,5-dimethylthiazol-2-yl)-2,5-diphenyl tetrazolium (MTT) (Sigma Chemical Co), which is based on the conversion of the dye to an insoluble precipitate called formazan. This test is used as an indicator of mitochondrial function in living cells which measures the metabolic capacity in cells and serves as an indicator of cytotoxicity. (Wang, H. Z., Chang, C. H., Lin, C. P., Tsai, M. C). Using MTT viability assay to test the cytotoxicity of antibiotics and steroid to cultured porcine corneal endothelial cells. J. Ocul. Pharmacol. Ther. 1996; 12: 35-43). For the essay 10,000 cells were seeded per well in 96-well plates (Corning Incorporated Costar) in the medium already indicated and incubated for 24 h at 37° C. and 5% CO2. […] After incubation, cells were treated and incubated again for 24 h. The medium was carefully aspirated and replaced with 200 μl fresh medium, adding 50 μl MTT solution for a total volume of 250 μl. They were then incubated for 4 hours in the above conditions. The medium was carefully removed with MTT and 200 μl DMSO and 25 μl Sorense buffer (0.1 M glycine+0.1 M NaCl at pH 10.5) was added to each well. Then the plate was mixed until the formazan crystals dissolved; it was finally read in a reader plate (Microplate Limaning System Ultramark, Biorad) at a wavelength of 550 nm.

[7] = system: Candida kruzei; test: Antifungal activity in vitro by flow cytometry, Candida kruzei; type: cell-based; settings: 24 h at 37° C., read-out: CF50 Candida kruzei
Method: as §1

[8] = Recarrier K. thesis; cited from earlier work

Row | SMILES | IC50 [1] | IC50 [2] | HE50 (Hemolysis 50) [3] | Opening probability, channel type I [4] | Opening probability, channel type II [4] | Opening probability, channel type III [4] | Opening probability, channel type IV [4] | Opening probability, channel type V [4] | Opening probability, channel type VI [4] | activity of transmembranal channels in the cholesterol membrane [4] | inhibitory capacity / potency on SC cells compared to AmB ([5]; listed as amide 1) | DT50 CitE50 [6] | IC50 [7] | inhibitory capacity / potency on SC cells compared to AmB [5] | collateral cytotoxicity on human renal cells 293Q compared to AmB ([6]; FIG. 2, FIG. 8) | selectivity ergosterol versus cholesterol POPC membranes [8]
1 | CC1OC(O[C@H]2/C=C/C=C/C=C/C=C/C=C/C=C/C=C/C(C)[C@@H](O)C(C)C(C)OC(=O)C[C@H](O)C[C@H](O)CC[C@@H](O)[C@H](O)C[C@H](O)C[C@]3(O)CC(O)[C@@H](C(=O)NCc4ccccc4)C(C2)O3)C(O)C(N)C1O (stereo partly shown) [A-1, N-benzylamide of AmB] | > 100 µM | > 100 µM | 52 µM | 2% | 1% | <1% | <1% | <1% | <1% | low activity of transmembranal channels | the most similar; also recorded: the highest power of the derivatives | 100 µM | > 100 µM | – | – | –
2 | CC1OC(O[C@H]2/C=C/C=C/C=C/C=C/C=C/C=C/C=C/C(C)[C@@H](O)C(C)C(C)OC(=O)C[C@H](O)C[C@H](O)CC[C@@H](O)[C@H](O)C[C@H](O)C[C@]3(O)CC(O)[C@@H](C(=O)N(C(C)C)C(C)C)C(C2)O3)C(O)C(N)C1O (stereo partly shown) [A-3, N-diisopropylamide of AmB] | > 50 µM | > 100 µM | 53 µM | <1% | N.O. | N.O. | N.O. | N.O. | N.O. | more reduced presence of channels in membranes with cholesterol | – | 180 µM | > 100 µM | low potency in fungal cells | low cytoxicity | –
3 | C[C@@H]1[C@H](O)[C@@H](C)/C=C/C=C/CC/C=C/C=C/C=C/C=C/C(O[C@H]2O[C@H](C)[C@@H](O)[C@H](N)[C@@H]2O)CC2O[C@](O)(CC(O)C(O)CCC(O)CC(O)CC(O)CC(=O)O[C@H]1C)CC(O)C2C(=O)O (stereo partly shown) [nystatin] | – | – | – | – | – | – | – | – | – | – | – | – | – | – | – | much higher selectivity
